Source: DBAASP
Converted amounts (≈) assume the structure as drawn. Values belong to the compound of their own block, whether it stands above or below them.

Key:
Assay in all cases: ≥ marks a high value that may be exact or a test limit, other limits are often not marked, values filed in µg/mL are converted to µM
Bacillus subtilis = test system: Bacillus subtilis
[1] = test system: Candida albicans ATCC 2002
[2] = test system: Escherichia coli ATCC 25922
[3] = test system: Staphylococcus aureus ATCC 2592
[4] = test system: Staphylococcus aureus NCTC 8325
Escherichia coli UB1005 = test system: Escherichia coli UB1005
[5] = test system: Salmonella enterica subsp. enterica serovar Typhimurium C77-31
[6] = test system: Staphylococcus aureus ATCC 25923
[7] = test system: Staphylococcus aureus ATCC 29213
[8] = test system: Staphylococcus epidermidis ATCC 12228
[9] = test system: Bacillus subtilis KCTC 3068
[10] = test system: Escherichia coli KCTC 1682
[11] = test system: Pseudomonas aeruginosa KCTC 1637
[12] = test system: Salmonella typhimurium KCTC 1926
[13] = test system: Staphylococcus aureus KCTC 1621
[14] = test system: Staphylococcus epidermidis KCTC 1917
[15] = test system: Enterococcus faecalis ATCC 29212
[16] = test system: Candida albicans ATCC 90028

MIC (Bacillus subtilis): 18 µM (≈ 50 µg/mL) | MIC [1]: 2.27 µM (≈ 6.3 µg/mL) | MIC [2]: 4.5 µM (≈ 12.5 µg/mL) | MIC [3]: 4.5 µM (≈ 12.5 µg/mL)
Structure (SMILES): CC[C@H](C)[C@H](NC(=O)[C@H](C)NC(=O)[C@H](CS)NC(=O)[C@@H](NC(=O)[C@@H](NC(=O)[C@@H](NC(=O)[C@@H]1CCCN1C(=O)[C@@H](NC(=O)[C@@H](NC(=O)[C@@H](NC(=O)[C@H](C)NC(=O)[C@H](Cc1ccccc1)NC(=O)[C@H](CC(C)C)NC(=O)[C@H](CCCN=C(N)N)NC(=O)[C@H](CCCN=C(N)N)NC(=O)[C@H](CC(C)C)NC(=O)CNC(=O)[C@@H]1CCCN1C(=O)[C@@H](NC(=O)[C@@H](N)Cc1ccccc1)[C@@H](C)CC)[C@@H](C)O)C(C)C)C(C)C)[C@@H](C)O)C(C)C)C(C)C)C(=O)N[C@@H](CC(N)=O)C(=O)N[C@@H](CCCCN)C(=O)N[C@@H](CC(C)C)C(=O)N1CCC[C@H]1C(=O)N1CCC[C@H]1C(=O)NCC(=O)O [FIPGLRRLFATVVPTVVCAINKLPPG]

MIC [2]: 12.5 µM (≈ 26.5 µg/mL) | MIC [4]: 12.5 µM (≈ 26.5 µg/mL)
Structure (SMILES): CC[C@H](C)[C@H](NC(=O)[C@@H](NC(=O)[C@H](CO)NC(=O)[C@@H]1CCCN1C(=O)[C@@H](NC(=O)[C@H](CC(C)C)NC(=O)[C@H](CCCCN)NC(=O)[C@H](Cc1ccccc1)NC(=O)[C@H](CC(C)C)NC(=O)CNC(=O)CNC(=O)[C@H](CC(C)C)NC(=O)[C@@H](N)Cc1ccccc1)C(C)C)C(C)C)C(=O)N[C@H]1CSSC[C@@H](C(=O)O)NC(=O)[C@H](CCCCN)NC(=O)[C@H](CCCCN)NC(=O)[C@H]([C@@H](C)O)NC(=O)[C@H](C(C)C)NC(=O)[C@H](C)NC1=O [FLGGLFKLVPSVICAVTKKC]

MIC (Bacillus subtilis): 20.7 µM (≈ 50 µg/mL) | MIC [1]: 10.3 µM (≈ 25 µg/mL) | MIC [2]: 20.7 µM (≈ 50 µg/mL) | MIC [3]: 10.3 µM (≈ 25 µg/mL)
Structure (SMILES): CC[C@H](C)[C@H](NC(=O)CNC(=O)[C@H](CO)NC(=O)[C@H](CCCN=C(N)N)NC(=O)[C@@H](N)Cc1ccccc1)C(=O)N[C@@H](CC(C)C)C(=O)N[C@@H](CCCCN)C(=O)N[C@@H](CC(C)C)C(=O)N[C@@H](C)C(=O)N[C@@H](CO)C(=O)N[C@@H](CCCCN)C(=O)N[C@H](C(=O)NCC(=O)N[C@@H](CO)C(=O)N[C@H](C(=O)N[C@@H](CC(C)C)C(=O)N[C@H]1CSSC[C@@H](C(=O)O)NC(=O)[C@H](CC(N)=O)NC(=O)[C@H](CCCCN)NC(=O)[C@H](CC(C)C)NC(=O)[C@H](C(C)C)NC(=O)[C@H](C)NC1=O)C(C)C)[C@@H](C)CC [FRSGILKLASKIGSVLCAVLKNC]

MIC [2]: 20 µM (≈ 54.7 µg/mL) | MIC [4]: ≥ 160 µM
Structure (SMILES): CC[C@H](C)[C@H](NC(=O)CNC(=O)[C@H](CCC(N)=O)NC(=O)[C@H](Cc1ccccc1)NC(=O)[C@H](Cc1ccccc1)NC(=O)[C@H](CCCCN)NC(=O)[C@H](CCCCN)NC(=O)[C@H](CC(C)C)NC(=O)[C@H](C)NC(=O)[C@H](CC(N)=O)NC(=O)[C@H](CC(C)C)NC(=O)CN)C(=O)N[C@@H](Cc1cnc[nH]1)C(=O)N[C@@H](CCC(=O)O)C(=O)N[C@@H](C)C(=O)N[C@H](C(=O)N[C@@H](CCCCN)C(=O)N[C@@H](CC(C)C)C(=O)N[C@H](C(=O)N[C@@H](CC(N)=O)C(=O)N[C@@H](CC(N)=O)C(=O)N[C@@H](Cc1cnc[nH]1)C(=O)N[C@H](C(=O)N[C@@H](CCC(N)=O)C(=O)O)C(C)C)[C@@H](C)CC)[C@@H](C)CC [GLNALKKFFQGIHEAIKLINNHVQ]

MIC [2]: 20 µM (≈ 53.7 µg/mL) | MIC [4]: ≥ 80 µM
Structure (SMILES): CC[C@H](C)[C@H](NC(=O)CNC(=O)[C@H](CCC(N)=O)NC(=O)[C@H](Cc1ccccc1)NC(=O)[C@@H](NC(=O)[C@H](CCCCN)NC(=O)[C@H](CCCCN)NC(=O)[C@H](CC(C)C)NC(=O)[C@H](C)NC(=O)[C@H](CC(N)=O)NC(=O)[C@H](CC(C)C)NC(=O)CN)C(C)C)C(=O)N[C@@H](Cc1cnc[nH]1)C(=O)N[C@@H](CCC(=O)O)C(=O)N[C@@H](C)C(=O)N[C@H](C(=O)N[C@@H](CCCCN)C(=O)N[C@@H](CC(C)C)C(=O)N[C@H](C(=O)N[C@@H](CC(N)=O)C(=O)N[C@@H](CC(N)=O)C(=O)N[C@@H](Cc1cnc[nH]1)C(=O)N[C@H](C(=O)N[C@@H](CCCCN)C(=O)O)C(C)C)[C@@H](C)CC)[C@@H](C)CC [GLNALKKVFQGIHEAIKLINNHVK]

MIC [2]: 128 µM (≈ 205 µg/mL) | MIC (Escherichia coli UB1005): ≥ 128 µM | MIC [5]: ≥ 128 µM | MIC [6]: > 128 µM | MIC [7]: > 128 µM | MIC [8]: > 128 µM
Structure (SMILES): CC(C)C[C@H](NC(=O)[C@H](CCCN=C(N)N)NC(=O)[C@H](CCCN=C(N)N)NC(=O)[C@H](Cc1ccccc1)NC(=O)[C@H](CCCN=C(N)N)NC(=O)CN)C(=O)N[C@@H](CCCN=C(N)N)C(=O)N[C@@H](CCCCN)C(=O)N[C@@H](CCCCN)C(=O)N[C@H](C(=O)N[C@@H](CCCN=C(N)N)C(=O)N[C@@H](CCCCN)C(N)=O)[C@@H](C)O [GRFRRLRKKTRK]

MIC [9]: 5.77 µM (≈ 9.99 µg/mL) | MIC [10]: 2.88 µM (≈ 5 µg/mL) | MIC [11]: 11.5 µM (≈ 20 µg/mL) | MIC [12]: 5.77 µM (≈ 9.99 µg/mL) | MIC [13]: 5.77 µM (≈ 9.99 µg/mL) | MIC [14]: 2.88 µM (≈ 5 µg/mL)
Structure (SMILES): CC[C@H](C)[C@H](N)C(=O)N[C@@H](CC(C)C)C(=O)N1CCC[C@H]1C(=O)N[C@@H](Cc1c[nH]c2ccccc12)C(=O)N[C@@H](CCCCN)C(=O)N[C@@H](CCCCN)C(=O)N1CCC[C@H]1C(=O)N[C@@H](CCCCN)C(=O)N[C@@H](CCCCN)C(=O)N1CCC[C@H]1C(=O)N[C@@H](Cc1c[nH]c2ccccc12)C(=O)N[C@@H](CCCN=C(N)N)C(=O)N[C@@H](CCCN=C(N)N)C(N)=O [ILPWKKPKKPWRR]

MIC [15]: 8 µM (≈ 18.4 µg/mL) | MIC (Escherichia coli UB1005): 8 µM (≈ 18.4 µg/mL) | MIC [5]: 8 µM (≈ 18.4 µg/mL) | MIC [8]: 4 µM (≈ 9.2 µg/mL)
Structure (SMILES): CC[C@H](C)[C@H](NC(=O)[C@H](CCCCN)NC(=O)[C@H](CCCCN)NC(=O)[C@H](CC(C)C)NC(=O)[C@H](CCCN=C(N)N)NC(=O)[C@H](CCCCN)NC(=O)[C@H](CCCN=C(N)N)NC(=O)[C@@H](NC(=O)[C@H](Cc1c[nH]c2ccccc12)NC(=O)[C@H](Cc1c[nH]c2ccccc12)NC(=O)[C@H](CCCN=C(N)N)NC(=O)[C@H](CC(C)C)NC(=O)[C@H](CCCN=C(N)N)NC(=O)[C@H](CCCN=C(N)N)NC(=O)[C@H](Cc1ccccc1)NC(=O)[C@@H](N)CCCN=C(N)N)[C@@H](C)O)C(N)=O [RFRRLRWWTRKRLKKI]

MIC [2]: 4 µM (≈ 7.25 µg/mL) | MIC (Escherichia coli UB1005): 4 µM (≈ 7.25 µg/mL) | MIC [5]: 8 µM (≈ 14.5 µg/mL) | MIC [6]: 8 µM (≈ 14.5 µg/mL) | MIC [7]: 4 µM (≈ 7.25 µg/mL) | MIC [8]: 8 µM (≈ 14.5 µg/mL)
Structure (SMILES): CC(C)C[C@H](NC(=O)[C@H](CCCN=C(N)N)NC(=O)[C@H](Cc1c[nH]c2ccccc12)NC(=O)[C@H](CCCN=C(N)N)NC(=O)[C@@H](NC(=O)[C@H](Cc1c[nH]c2ccccc12)NC(=O)[C@H](Cc1c[nH]c2ccccc12)NC(=O)[C@H](CCCN=C(N)N)NC(=O)[C@H](CC(C)C)NC(=O)[C@H](CCCN=C(N)N)NC(=O)[C@@H](N)CCCN=C(N)N)[C@@H](C)O)C(=O)N[C@@H](CCCCN)C(N)=O [RRLRWWTRWRLK]

MIC [10]: ≥ 124 µM | MIC [11]: ≥ 124 µM | MIC [13]: ≥ 124 µM | MIC [14]: ≥ 124 µM
Structure (SMILES): NC(=O)[C@H](CCCN=C(N)N)NC(=O)[C@H](Cc1c[nH]c2ccccc12)NC(=O)[C@@H](N)CCCN=C(N)N [RWR]

MIC [16]: ≥ 110 µM | MIC [2]: 3.5 µM (≈ 9.22 µg/mL) | MIC [4]: ≥ 60 µM
Structure (SMILES): CC[C@H](C)[C@H](NC(=O)[C@H](CCSC)NC(=O)[C@@H](N)CO)C(=O)N[C@@H](CO)C(=O)N[C@H](C(=O)N[C@@H](CC(C)C)C(=O)N[C@@H](CCCCN)C(=O)N[C@@H](CC(N)=O)C(=O)N[C@@H](CC(C)C)C(=O)NCC(=O)N[C@@H](CCCCN)C(=O)N[C@H](C(=O)NCC(=O)N[C@@H](CC(C)C)C(=O)NCC(=O)N[C@@H](Cc1ccccc1)C(=O)N[C@H](C(=O)N[C@@H](C)C(=O)N[C@H]1CSSC[C@@H](C(=O)O)NC(=O)[C@H](CCC(N)=O)NC(=O)[C@H](CCCCN)NC(=O)[C@H](CC(N)=O)NC(=O)[C@H](C(C)C)NC(=O)[C@H](CCCCN)NC1=O)C(C)C)C(C)C)C(C)C [SMISVLKNLGKVGLGFVACKVNKQC]

MIC (Bacillus subtilis): 2.06 µM (≈ 4.69 µg/mL) | MIC [1]: 1.03 µM (≈ 2.34 µg/mL) | MIC [2]: 8.24 µM (≈ 18.7 µg/mL) | MIC [3]: 2.06 µM (≈ 4.69 µg/mL)
Structure (SMILES): CC(C)[C@H](N)C(=O)N[C@@H](CCCCN)C(=O)N[C@@H](CCCN=C(N)N)C(=O)N[C@@H](Cc1c[nH]c2ccccc12)C(=O)N[C@@H](CCCCN)C(=O)N[C@@H](CCCCN)C(=O)N[C@@H](Cc1ccccc1)C(=O)N[C@@H](Cc1c[nH]c2ccccc12)C(=O)N[C@@H](CCCN=C(N)N)C(=O)N[C@@H](CCCCN)C(=O)N[C@@H](Cc1c[nH]c2ccccc12)C(=O)N[C@@H](CCCCN)C(=O)N[C@@H](CCCCN)C(=O)N[C@@H](Cc1c[nH]c2ccccc12)C(=O)N[C@@H](Cc1c[nH]c2ccccc12)C(N)=O [VKRWKKFWRKWKKWW]
